Reference: patent US10161932B2, “Azetidine-substituted fluorescent compounds” (HOWARD HUGHES MEDICAL INSTITUTE, priority 2014, dated 2018)

Tests used:
SnapTag-H2B = experiment: Nuclear labeling of live HeLa cells expressing SnapTag-H2B; assay type: cell-based
Source text: In this Example, an azetidinyl-coumarin label was used for cellular imaging. The performance of a commercial SnapTag ligand (i.e., Snap Cell 430) was compared to a novel azetidinyl derivative (Example 52), which was synthesized from a 7-azetidinyl-coumarin-3-carboxylic acid. Under identical transient transfection, labeling, and imaging conditions, H2B-SnapTag-expressing cells were stained with the red fluorescent nuclear stain DRAQ5 and either Snap Cell 430 or the azetidinyl ligand. Using the DRAQ5 staining as a spatial reference (FIGS. 26 and 27) the intensity of individual nuclei labeled by either SnapTag ligand was measured.
(§1) HeLa cells (ATCC) and U2OS cells (ATCC) were cultured in Dulbecco's modified eagle medium (DMEM; Life Technologies) supplemented with 10% v/v fetal bovine serum (FBS; Life Technologies), 1 mM GlutaMax (Life Technologies), and 1 mM sodium pyruvate (Sigma) and maintained at 37° C. in a humidified 5% v/v CO2 environment. These cell lines undergo regular mycoplasma testing by the Janelia Cell Culture Facility. […]
Three separate systems were used to acquire microscopic images. […] Other live-cell single super-resolution imaging experiments were recorded on a custom-built three-camera RAMM frame (ASI) microscope using an 1.4 NA PLAPON 60×OSC objective (Olympus), and a 300 mm focal length tube lens (LAO-300.0, Melles Griot), resulting in 100× overall magnification. […]

HaloTag = experiment: Labeling kinetics and brightness of HaloTag ligand conjugates in vitro; assay type: biochemical; settings: compared with TMR and Cy3 HaloTag ligands
Source text: (§2) The labeling kinetics of TMR and JF549 HaloTag ligands were compared with a novel Cy3 HaloTag ligand while measuring the brightness and photon yield of the resulting conjugates.

[1] = system: HaloTag-histone 2B (H2B) fusion; experiment: Live-cell confocal labeling of HaloTag-H2B; assay type: cell-based; settings: live cells expressing HaloTag-H2B
Method: as §2
as §1, with “Facility. Cells were transfected with HaloTag-H2B, HaloTag-tubulin, SnapTag-TetR, or SnapTag-H2B using an Amaxa Nucleofector (Lonza).” for “Facility.”
(§3) Three separate systems were used to acquire microscopic images. […] Other live-cell single super-resolution imaging experiments were recorded on a custom-built three-camera RAMM frame (ASI) microscope using an 1.4 NA PLAPON 60×OSC objective (Olympus), and a 300 mm focal length tube lens (LAO-300.0, Melles Griot), resulting in 100× overall magnification. […] Fluorescence was detected with a back-illuminated EMCCD camera (Andor Technology, Ixon Ultra DU-897U-CSO-EXF, 17 MHz EM amplifier), which was controlled through Micro-Manager (1.4.17).

HaloTag-H2B = experiment: No wash wide-field imaging of live HeLa cells expressing HaloTag-H2B; assay type: cell-based; settings: ligand 100 nM
Method: Next, “no wash” imaging experiments were performed using cells expressing the HaloTag-H2B fusion.
as §1, with “Facility. Cells were transfected with HaloTag-H2B, HaloTag-tubulin, SnapTag-TetR, or SnapTag-H2B using an Amaxa Nucleofector (Lonza). Before the imaging experiments, transfected cells were transferred onto a No. 1 coverslip (Warner Instruments) that was cleaned by Piranha solution (3:1 v/v mixture of concentrated H2SO4 and 30% v/v hydrogen peroxide).” for “Facility.”
as §3

HaloTag protein = settings: ligand 5 μM, 10 mM HEPES pH 7.3 with 0.1 mg·mL^−1 CHAPS
Method: To measure fluorescence of HaloTag ligands upon reaction with HaloTag protein, absorbance measurements were performed in 1 mL quartz cuvettes. HaloTag protein was used as a 100 μM solution in 75 mM NaCl, 50 mM TRIS. HCl, pH 7.4 with 50% v/v glycerol (TBS-glycerol). HaloTag ligands of JF646 and SiTMR (5 μM) were dissolved in 10 mM HEPES, pH 7.3 containing 0.1 mg·mL^−1 CHAPS. An aliquot of HaloTag protein (1.5 equiv) or an equivalent volume of TBS-glycerol blank was added and the resulting mixture was incubated until consistent absorbance signal was observed (˜30 min). […] Absorbance scans are averages (n=2).

[2] = Absorption and fluorescence spectroscopy of dyes; assay type: physicochemical
Method: Phosphate buffered saline (PBS) was at pH 7.4 unless otherwise noted.
Spectroscopy was performed using 1-cm path length, 3.5-mL quartz cuvettes from Starna Cells or 1-cm path length, 1.0-mL quartz microcuvettes from Hellma. All measurements were taken at ambient temperature (22±2° C.) in 10 mM HEPES, pH 7.3 buffer unless otherwise noted. Absorption spectra were recorded on a Cary Model 100 spectrometer (Varian); reported values for extinction coefficients (ε) are averages (n=3). Fluorescence spectra were recorded on a Cary Eclipse fluorometer (Varian). Normalized spectra are shown for clarity.

[3] = Quantum yield measurement (Quantaurus-QY spectrometer); assay type: physicochemical
Method: All reported quantum yield values were measured in under identical conditions using a Quantaurus-QY spectrometer (C11374, Hamamatsu). Measurements were carried out using dilute samples (A<0.1) and self-absorption corrections were performed using the instrument software. Reported values are averages (n=3).

[4] = Fluorescence lifetime measurement
Method: For fluorescence lifetime measurements, a pulse picker (Model 350-160, ConOptics) was placed in the laser beam to reduce the pulse frequency from 80 MHz to 20 MHz. Samples (2 μM dye diluted in 50 mM HEPES, pH 7.2, H2O, or CH3OH) were excited at 830 nm laser wavelength and 6 mW laser power. The emitted light was collected by the fast-timing APD and fed to the single-photon counting board (TimeHarp200; PicoQuant). Timing pulses were obtained from a PIN diode (DET01CFC; ThorLabs) monitoring the 20 MHz pulse train. The temporal impulse response of the system was determined by second harmonic generation of laser pulses using a thin nonlinear crystal in place of a dye sample. The lifetime decay data was fit to a single exponential decay function using a custom MATLAB program.

**Q.** Which results are given for `Nc1nc(OCc2ccc(CNC(=O)c3cc4ccc(N5CCC5)cc4oc3=O)cc2)c2nc[nH]c2n1` [Example 52, N-(4-(((2-Amino-9H-purin-6-yl)oxy)methyl)benzyl)-7-(azetidin-1-yl)-2-oxo-2H-chromene-3-carboxamide]?
**A.** nuclear fluorescence intensity (SnapTag-H2B; DRAQ5 reference): brighter nuclear labeling; median nuclear intensity relative to cells labeled with the commercial compound (SnapTag-H2B; n=50): five-fold higher

**Q.** Which labeling kinetics (HaloTag) does the source give for `O=C(NCCOCCOCCCCCCCl)c1ccc(C(=O)[O-])c(-c2c3ccc(=[N+]4CCC4)cc-3oc3cc(N4CCC4)ccc23)c1` [Example 21, 4-((2-(2-((6-Chlorohexyl)oxy)ethoxy)ethyl)carbamoyl)-2-(3,6-di(azetidin-1-yl)xanthylium-9-yl)benzoate] here?
**A.** comparable labeling kinetics to the TMR ligand

**Q.** And the “live-cell labeling / cell permeability” value [1]?
**A.** efficiently crossed the membrane of live cells and selectively labeled the HaloTag protein

**Q.** For `C[Si]1(C)C2=CC(=[N+]3CCC3)C=CC2=C(c2cc(C(=O)NCCOCCOCCCCCCCl)ccc2C(=O)[O-])c2ccc(N3CCC3)cc21` [Example 35, 4-((2-(2-((6-Chlorohexyl)oxy)ethoxy)ethyl)carbamoyl)-2-(3,7-di(azetidin-1-yl)-5,5-dimethyldibenzo[b,e]silin-10-ylium-10(5H)-yl)benzoate], which “nonspecific staining / background” value (HaloTag-H2B) is on record?
**A.** lower nonspecific staining

**Q.** And the “increase in absorbance upon reaction with excess HaloTag protein” value (HaloTag protein)?
**A.** 21 fold

**Q.** For `Cl.N=c1ccc2c(-c3ccccc3C(=O)O)c3ccc(N)cc3oc-2c1` [rhodamine 110, reference compound], which ε ([2]; Table 2, 10 mM HEPES pH 7.3) is on record?
**A.** 76,000 M^−1 cm^−1

**Q.** And the λem ([2]; Table 2, 10 mM HEPES pH 7.3)?
**A.** 520 nm

**Q.** And the λmax ([2]; Table 2, 10 mM HEPES pH 7.3)?
**A.** 497 nm

**Q.** And the “ε (extinction coefficient)” value ([2]; aqueous buffer)?
**A.** 76000 M⁻¹ cm⁻¹

**Q.** And the ϕ ([3]; Table 2, 10 mM HEPES pH 7.3)?
**A.** 0.88

**Q.** And the “ϕ (quantum yield)” value ([3]; aqueous buffer)?
**A.** 0.88

**Q.** What about the “τ (fluorescence lifetime)” value [4] of the same compound?
**A.** 3.3 ns

**Q.** What about the τ ([4]; Table 2, 10 mM HEPES pH 7.3 per table footnote) of the same compound?
**A.** 3.26 ns
